Laboratory results as given in ChEMBL document CHEMBL2163249, “Exploration of natural compounds as sources of new bifunctional scaffolds targeting cholinesterases and beta amyloid aggregation: the case of chelerythrine” (Bioorg Med Chem, 2012).
Starred links: 1 amine or outer side, 2 acyl side, 3 side chain; linkers in the order of their positions; H or OH if unused. Positions of bridges follow the written chain, without caps; N, C: chain ends. Non-standard residues stand in square brackets, D forms with d. Residues, ends and D or L forms follow the SMILES beside them. Chains are numbered I, II in the order given. Actinocin(9to1) = Cc1c2oc3c(C)ccc(C(=O)[*:1])c3nc-2c(C(=O)[*:2])c(N)c1=O; NMeV = CN[C@H](C(=O)O)C(C)C; Sar = CNCC(=O)O

Tests used:
[1] = target: Cholinesterase (Equus caballus) (UniProt P81908); settings: at 2 mg/mL
Cholinesterase (Equus caballus), sequence (P81908 whole entry): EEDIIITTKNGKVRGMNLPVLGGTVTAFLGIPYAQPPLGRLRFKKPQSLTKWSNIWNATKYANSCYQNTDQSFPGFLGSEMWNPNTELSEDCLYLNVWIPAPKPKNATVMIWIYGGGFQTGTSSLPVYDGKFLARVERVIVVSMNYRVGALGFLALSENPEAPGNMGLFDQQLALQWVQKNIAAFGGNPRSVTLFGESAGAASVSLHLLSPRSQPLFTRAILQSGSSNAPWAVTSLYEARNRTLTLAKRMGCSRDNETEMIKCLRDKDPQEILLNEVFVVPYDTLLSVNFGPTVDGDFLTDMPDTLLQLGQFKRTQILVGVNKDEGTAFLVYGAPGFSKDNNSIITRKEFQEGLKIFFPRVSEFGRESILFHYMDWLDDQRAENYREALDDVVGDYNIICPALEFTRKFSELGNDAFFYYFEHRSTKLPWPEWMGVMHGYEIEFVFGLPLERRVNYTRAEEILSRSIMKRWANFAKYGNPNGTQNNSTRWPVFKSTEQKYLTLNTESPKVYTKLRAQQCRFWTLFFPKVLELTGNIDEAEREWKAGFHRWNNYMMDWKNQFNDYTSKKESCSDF
Description: Inhibition of horse BChE at 2 mg/ml by Ellman's method

[2] = target: Acetylcholinesterase (Electrophorus electricus) (UniProt O42275); settings: at 2 mg/mL
Acetylcholinesterase (Electrophorus electricus), sequence (O42275 24-633 limits assumed): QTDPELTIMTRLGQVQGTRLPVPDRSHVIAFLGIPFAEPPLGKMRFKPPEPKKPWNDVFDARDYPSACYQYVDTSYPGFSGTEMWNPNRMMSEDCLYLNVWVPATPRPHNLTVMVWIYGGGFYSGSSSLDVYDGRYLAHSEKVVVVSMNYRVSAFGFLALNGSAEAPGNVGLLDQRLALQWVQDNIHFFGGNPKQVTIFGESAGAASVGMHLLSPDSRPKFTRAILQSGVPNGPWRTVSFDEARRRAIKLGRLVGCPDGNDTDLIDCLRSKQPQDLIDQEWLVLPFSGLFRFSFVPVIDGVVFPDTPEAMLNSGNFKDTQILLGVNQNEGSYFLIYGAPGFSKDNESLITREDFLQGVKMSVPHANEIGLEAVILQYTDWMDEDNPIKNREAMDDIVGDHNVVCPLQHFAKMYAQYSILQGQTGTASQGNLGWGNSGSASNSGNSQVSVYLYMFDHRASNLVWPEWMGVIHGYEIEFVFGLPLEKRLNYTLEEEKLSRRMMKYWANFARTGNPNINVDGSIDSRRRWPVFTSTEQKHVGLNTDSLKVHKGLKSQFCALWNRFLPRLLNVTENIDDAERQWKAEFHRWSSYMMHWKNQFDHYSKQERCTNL
Description: Inhibition of electric eel AChE at 2 mg/ml by Ellman's method

Structure (SMILES)	inhibition [1]	inhibition [2]
CC(C)[C@@H]1NC(=O)[C@H](C)OC(=O)[C@@H](C(C)C)NC(=O)[C@@H](C(C)C)OC(=O)[C@H](C(C)C)NC(=O)[C@H](C)OC(=O)[C@@H](C(C)C)NC(=O)[C@@H](C(C)C)OC(=O)[C@H](C(C)C)NC(=O)[C@H](C)OC(=O)[C@@H](C(C)C)NC(=O)[C@@H](C(C)C)OC1=O	-1.5%	16.6%
COc1c(O)cc(O)c2c(=O)cc(-c3ccccc3)oc12	-5.86%	-1.48%
COc1ccc(/C=C/C(=O)c2c(O)cc(OC)cc2OC)cc1	-9.95%	-6.03%
COC1=C(N)C(=O)c2nc(-c3nc(C(=O)O)c(C)c(-c4ccc(OC)c(OC)c4O)c3N)ccc2C1=O	-5.44%	-2.66%
O=C1C[C@@H](c2ccc(O)cc2)Oc2cc(O)cc(O)c21	0.68%	7.24%
CC1=C(/C=C/C(C)=C\C=C\C(C)=C\C(=O)O)C(C)(C)CCC1	-2.78%	14.3%
COc1cc2c(c3oc4cccc(O)c4c(=O)c13)[C@@H]1C=CO[C@@H]1O2	-2.65%	18.2%
CC[C@@H](C(=O)[C@@H](C)[C@@H](O)[C@H](C)[C@@H]1O[C@@H]([C@@H](CC)C(=O)O)CC[C@@H]1C)[C@H]1O[C@]2(C=C[C@@H](O)[C@]3(CC[C@@](C)([C@H]4CC[C@](O)(CC)[C@H](C)O4)O3)O2)[C@H](C)C[C@@H]1C	3.73%	4.25%
CC[C@H](C)C(=O)O[C@H]1CCC=C2C=C[C@H](C)[C@H](CC[C@@H]3C[C@@H](O)CC(=O)O3)[C@H]21	7.39%	-9.46%
C[C@H]1CC[C@@]2(OC1)O[C@H]1C[C@H]3[C@@H]4CC[C@@H]5C[C@@H](O)CC[C@]5(C)[C@H]4CC[C@]3(C)[C@H]1[C@@H]2C	-2.96%	-3.09%
COC(=O)C1=CO[C@@H](C)[C@@H]2CN3CCc4c([nH]c5ccccc45)[C@@H]3C[C@H]12	89.1%	22%
CCCCC1OC(=O)C2=CCCCC21 (stereo unspecified)	4.12%	-0.57%
O=C1c2ccccc2-n2c1nc1ccccc1c2=O	-2.13%	35.3%
C[C@@]12CCc3occc3[C@H]1CC[C@]13CC(=O)[C@H](CC[C@H]12)C3	-0.09%	-5.73%
CCOC(=O)[C@H]1O[C@@H]1C(=O)N[C@@H](CC(C)C)C(=O)NCCC(C)C	-0.73%	1.24%
COc1cc([C@@H]2c3cc4c(cc3[C@H](O)[C@H]3COC(=O)[C@H]23)OCO4)cc(OC)c1OC	-9.54%	8.74%
COC1=C[C@@H]2[C@@H]3Cc4ccc(OC)c(O)c4[C@]2(CCN3C)CC1=O	5.14%	4.63%
COc1cc2c3cc1Oc1cc(ccc1O)C[C@@H]1c4c(cc(OC)c(O)c4Oc4ccc(cc4)C[C@@H]3N(C)CC2)CC[N+]1(C)C	3.03%	5.5%
CN1[C@H]2C[C@H](OC(=O)[C@H](CO)c3ccccc3)C[C@@H]1[C@@H](O)C2	8.08%	9.43%
C[C@]1(C(=O)O)CCC[C@]2(C)c3cc(O)ccc3CC[C@@H]12	-2.99%	-4.47%
O=C1Nc2ccccc2/C1=C1/Nc2ccccc2C1=O	13.7%	7.97%

Structure (SMILES)	inhibition [1]	inhibition [2]
C[N+]1([O-])[C@@H]2C[C@H](OC(=O)[C@H](CO)c3ccccc3)C[C@@H]1[C@H]1O[C@H]12 (stereo partly specified)	-1.85%	-6.51%
COc1cc2c(c(OC)c1OC)-c1ccc(OC)c(=O)cc1[C@@H](NC(C)=O)CC2	0.1%	0.14%
COc1cc2c(cc1OC)[C@@]13CC[N+]4([O-])CC5=CCO[C@H]6CC(=O)N2[C@H]1[C@H]6[C@H]5C[C@@H]34 (stereo partly specified)	-6.05%	12.8%
C[C@@H]1CC[C@]2(NC1)O[C@H]1C[C@H]3[C@@H]4CC=C5C[C@@H](O)CC[C@]5(C)[C@H]4CC[C@]3(C)[C@H]1[C@@H]2C	53.7%	1.63%
C/C=C/C/C=C/CCC(=O)[C@H]1O[C@H]1C(N)=O	3.38%	-4.02%
COc1cc(-c2oc3cc(O)cc(O)c3c(=O)c2OC2O[C@H](CO)[C@@H](O)[C@H](O)[C@H]2O)cc(OC)c1O (stereo partly specified)	2.12%	3.25%
CC(C)=CC[C@@H](O)C1=CC(=O)c2c(O)ccc(O)c2C1=O	3.58%	15.7%
CC1(C)[C@@H](O)CC[C@]2(C)[C@H]3C(=O)C=C4[C@@H]5C[C@@](C)(C(=O)O)CC[C@]5(C)CC[C@@]4(C)[C@]3(C)CC[C@@H]12	4.46%	-3.12%
CN1CCc2cc(O)c(O)cc2C1Cc1cc(O)c(O)cc1Br (racemic)	13.4%	27.2%
CC[C@H]1[C@@H]2C[C@H]3[C@@H]4N(C)c5ccccc5[C@]45C[C@@H]([C@@H]2[C@H]5O)N3[C@@H]1O	22.3%	29.8%
CCCCCCCCCCCCCC(=O)O[C@@H]1[C@@H](C)[C@@]2(O)[C@@H](C=C(CO)C[C@@]3(O)C(=O)C(C)=C[C@@H]23)[C@H]2C(C)(C)[C@]12OC(C)=O	-0.91%	12.9%
C/C1=C\CC(C)(C)/C=C/C(=O)/C(C)=C/CC1	4.2%	-4.84%
CC(C)[C@H]1C(=O)O[C@@H]2CCN3CC=C(COC(=O)[C@](C)(O)[C@]1(C)O)[C@H]23	3.04%	24.2%
CC1(C)CCC2=C(O1)c1ccccc1C(=O)C2=O	11.2%	-2.91%
C=C1CC[C@@H]2[C@](C)(CO)[C@H](O)CC[C@@]2(C)[C@@H]1C/C=C1/C(=O)OC[C@H]1O	8.56%	25.1%
C[C@@]12C(=O)OC(=O)[C@]1(C)[C@H]1CC[C@@H]2O1	-2.13%	-7.81%
Oc1cc(O)c2c(c1)O[C@H](c1ccc(O)c(O)c1)[C@H](O)C2	0.47%	-4.81%
O=C1c2c(O)cc(O)cc2O[C@H](c2ccc(O)c(O)c2)[C@H]1O	0.97%	17.8%
COc1cc(CNC(=O)CCCC/C=C/C(C)C)ccc1O	6.29%	-6.53%
C=C[C@](C)(O)CC[C@@H]1[C@@]2(C)CCCC(C)(C)[C@@H]2CC[C@@]1(C)O	-2.61%	3.08%
CC(C)=CCC[C@]1(C)C=Cc2c(O)c3c(c(CC=C(C)C)c2O1)O[C@]12C(=C[C@@H]4C[C@H]1C(C)(C)O[C@@]2(C/C=C(/C)C(=O)O)C4=O)C3=O	8.47%	1.17%

Structure (SMILES)	inhibition [1]	inhibition [2]
CN1Cc2c(ccc3c2OCO3)[C@@H]2[C@H]1c1cc3c(cc1C[C@@H]2O)OCO3	6.72%	29.8%
O=C(/C=C/c1ccc(O)c(O)c1)O[C@@H]1C[C@](O)(C(=O)O)C[C@@H](O)[C@H]1O	4.8%	10.8%
O=C1C=C2C=C[C@@H]3C[C@@]2(O1)[C@H]1CCCCN31	6.85%	7.44%
C=C(C)[C@H]1CN[C@H](C(=O)O)[C@H]1CC(=O)O	4.53%	-5.89%
C[C@H]([C@H](O)CCC(C)(C)O)[C@H]1CC[C@@]2(O)C3=CC(=O)[C@@H]4C[C@@H](O)[C@@H](O)C[C@]4(C)[C@H]3CC[C@]12C	-1.9%	-0.57%
C[C@@]12CCc3occc3[C@H]1CC[C@@]13C[C@@H](CC[C@H]12)[C@@](O)(CO)C3	13.8%	-1.43%
C[C@@H]1O[C@@H](OC[C@H]2O[C@@H](Oc3cc(O)c4c(c3)O[C@H](c3ccc(O)cc3)CC4=O)[C@H](O)[C@@H](O)[C@@H]2O)[C@H](O)[C@H](O)[C@H]1O	-0.5%	22.1%
COc1c(C)c2c(c(O)c1C/C=C(\C)CCC(=O)O)C(=O)OC2	-7.04%	-6.25%
Cc1c2oc3c(C)ccc(C(=O)N[C@@H]4C(=O)N[C@H](C(C)C)C(=O)N5CCC[C@H]5C(=O)N(C)CC(=O)N(C)[C@@H](C(C)C)C(=O)O[C@@H]4C)c3nc-2c(C(=O)N[C@@H]2C(=O)N[C@H](C(C)C)C(=O)N3CCC[C@H]3C(=O)N(C)CC(=O)N(C)[C@@H](C(C)C)C(=O)O[C@@H]2C)c(N)c1=O (I: T[dV]P[Sar][NMeV] / II: T[dV]P[Sar][NMeV]; ester I:1-I:C, II:1-II:C; linker I:N-II:N via Actinocin(9to1))	3.31%	-2.56%
O=C(O)c1cc(N(Cc2ccccc2O)Cc2ccccc2O)ccc1O	1.67%	2.48%
O=c1cc(-c2ccc(O)cc2)oc2cc(OC3O[C@H](CO)[C@@H](O)[C@H](O)[C@H]3O)cc(O)c12 (stereo partly specified)	5%	24.9%
C[C@@H]1C/C=C/C=C/C=C/C=C/[C@H](O[C@@H]2O[C@H](C)[C@@H](O)[C@H](N)[C@@H]2O)C[C@@H]2O[C@](O)(C[C@@H](O)C[C@H]3O[C@@H]3/C=C/C(=O)O1)C[C@H](O)[C@H]2C(=O)O	-8.59%	-4.37%
CCCCC[C@H](O)/C=C/C1=C(CCCCCCC(=O)O)C(=O)CC1	-1.44%	15.6%
Cc1cc(=O)oc2cc(O)ccc12	0.88%	4.46%
CCN1C[C@]2(OC(=O)c3ccccc3NC(C)=O)CC[C@H](OC)[C@@]34[C@@H]2C[C@@H]([C@@H]13)[C@@]1(O)C[C@H](OC)[C@H]2C[C@@H]4[C@]1(O)[C@H]2OC	-7.41%	1.48%
O=c1cc(-c2ccc(O)c(OC3O[C@H](CO)[C@@H](O)[C@H](O)[C@H]3O)c2)oc2cc(OC3O[C@H](CO)[C@@H](O)[C@H](O)[C@H]3O)cc(O)c12 (stereo partly specified)	-2.06%	28.6%
COc1cc(/C=C/c2ccccc2)oc(=O)c1	-0.13%	-0.87%
CCC[C@@H]1C[C@@H](C(=O)N[C@@H]([C@H]2O[C@H](SC)[C@H](O)[C@@H](O)[C@H]2O)[C@@H](C)O)N(C)C1	-2.36%	-3.63%
COc1ccc2cc1Oc1ccc(cc1)C[C@@H]1c3cc(c(OC)cc3CCN1C)Oc1c(OC)c(OC)cc3c1[C@H](C2)N(C)CC3	21.9%	-1.02%
O=C(CCc1ccc(O)cc1)c1c(O)cc(O)cc1O	17%	-6.41%
CC(C)C[C@H](NC(=O)[C@H]1O[C@@H]1C(=O)O)C(=O)NCCCCN=C(N)N	12.1%	-7.43%
